Results published in patent publication US7923450B2, “Modulators for amyloid beta” (Hoffmann-La Roche Inc., priority 2008, dated 2011).

tested on: not given; experiment: not given; details: not given

Compound | melting point
Cc1cn(-c2ccc(Nc3nc4c(s3)CCCC4c3ccc(OC(F)(F)F)cc3)cc2F)cn1 (centres unmarked) [Example 34, [3-Fluoro-4-(4-methyl-imidazol-1-yl)-phenyl]-[4-(4-trifluoromethoxy-phenyl)-4,5,6,7-tetrahydro-benzothiazol-2-yl]-amine] | 148 to 151 °C
COc1cc(Nc2ncc3c(n2)C(c2ccc(Cl)cc2Cl)CCC3)ccc1-n1cnc(C)c1 (centres unmarked) [Example 48, [8-(2,4-Dichloro-phenyl)-5,6,7,8-tetrahydro-quinazolin-2-yl]-[3-methoxy-4-(4-methyl-imidazol-1-yl)-phenyl]-amine] | 256 to 258 °C
COc1cc(Nc2ncc3c(n2)C(c2ccc(Cl)c(Cl)c2)CCC3)ccc1-n1cnc(C)c1 (centres unmarked) [Example 49, [8-(3,4-Dichloro-phenyl)-5,6,7,8-tetrahydro-quinazolin-2-yl]-[3-methoxy-4-(4-methyl-imidazol-1-yl)-phenyl]-amine] | 167 to 169 °C
COc1cc(Nc2ncc3c(n2)C(C)(c2ccccc2)CCC3)ccc1-n1cnc(C)c1 (centres unmarked) [Example 45, [3-Methoxy-4-(4-methyl-imidazol-1-yl)-phenyl]-(8-methyl-8-phenyl-5,6,7,8-tetrahydro-quinazolin-2-yl)-amine] | 207 to 209 °C
COc1cc(Nc2ncc3c(n2)C(CC#N)(c2ccc(Cl)cc2)CCC3)ccc1-n1cnc(C)c1 (centres unmarked) [Example 52, {8-(4-Chloro-phenyl)-2-[3-methoxy-4-(4-methyl-imidazol-1-yl)-phenylamino]-5,6,7,8-tetrahydro-quinazolin-8-yl}-acetonitrile] | 156 to 158 °C
COc1cc(Nc2ncc3c(n2)C(c2cccc(C(F)(F)F)c2)CCC3)ccc1-n1cnc(C)c1 (centres unmarked) [Example 47, [3-Methoxy-4-(4-methyl-imidazol-1-yl)-phenyl]-[8-(3-trifluoromethyl-phenyl)-5,6,7,8-tetrahydro-quinazolin-2-yl]-amine] | 213 to 215 °C
Cc1cn(-c2ccc(Nc3nc4c(s3)CCCC4(C)c3ccccc3)cc2F)cn1 (centres unmarked) [Example 31, [3-Fluoro-4-(4-methyl-imidazol-1-yl)-phenyl]-(4-methyl-4-phenyl-4,5,6,7-tetrahydro-benzothiazol-2-yl)-amine] | 160 to 164 °C
CCCC1(c2cccc(OC)c2)CCCc2cnc(Nc3ccc(-n4cnc(C)c4)c(OC)c3)nc21 (centres unmarked) [Example 46, [3-Methoxy-4-(4-methyl-imidazol-1-yl)-phenyl]-[8-(3-methoxy-phenyl)-8-propyl-5,6,7,8-tetrahydro-quinazolin-2-yl]-amine] | 166 to 168 °C
COc1cc(Nc2ncc3c(n2)C(c2ccc(F)cc2)CCC3)ccc1-n1cnc(C)c1 (centres unmarked) [Example 51, [8-(4-Fluoro-phenyl)-5,6,7,8-tetrahydro-quinazolin-2-yl]-[3-methoxy-4-(4-methyl-imidazol-1-yl)-phenyl]-amine] | 191 to 193 °C
COc1cc(Nc2nc(O)c3c(n2)C(c2ccccc2)CN(C)C3)ccc1-n1cnc(C)c1 (centres unmarked) [Example 53, 2-[3-Methoxy-4-(4-methyl-imidazol-1-yl)-phenylamino]-6-methyl-8-phenyl-5,6,7,8-tetrahydro-pyrido[4,3-d]pyrimidin-4-ol] | 152 to 155 °C

Further lines, results first:

melting point | Compound
150 to 152 °C | COc1cc(Nc2ncc3c(n2)C(C(=O)N(C)C)CCC3)ccc1-n1cnc(C)c1 (centres unmarked) [Example 86, 2-[3-Methoxy-4-(4-methyl-imidazol-1-yl)-phenylamino]-5,6,7,8-tetrahydro-quinazoline-8-carboxylic acid dimethylamide]
212 to 214 °C | COc1cc(Nc2ncc3c(n2)C(c2nc(C)no2)CCC3)ccc1-n1cnc(C)c1 (centres unmarked) [Example 64, [3-Methoxy-4-(4-methyl-imidazol-1-yl)-phenyl]-[8-(3-methyl-[1,2,4]oxadiazol-5-yl)-5,6,7,8-tetrahydro-quinazolin-2-yl]-amine]
207 to 209 °C | Cc1cn(-c2ccc(Nc3ncc4c(n3)C(c3cccc(C(F)(F)F)c3)CCC4)cc2F)cn1 (centres unmarked) [Example 57, [3-Fluoro-4-(4-methyl-imidazol-1-yl)-phenyl]-[8-(3-trifluoromethyl-phenyl)-5,6,7,8-tetrahydro-quinazolin-2-yl]-amine]
181 to 183 °C | COc1cc(Nc2ncc3c(n2)C(c2ccccn2)CCC3)ccc1-n1cnc(C)c1 (centres unmarked) [Example 84, [3-Methoxy-4-(4-methyl-imidazol-1-yl)-phenyl]-(8-pyridin-2-yl-5,6,7,8-tetrahydro-quinazolin-2-yl)-amine]
228 to 231 °C | COc1cc(Nc2nc3c(s2)CCCC3c2ccccc2)ccc1-c1nc(C)no1 (centres unmarked) [Example 89, [3-Methoxy-4-(3-methyl-[1,2,4]oxadiazol-5-yl)-phenyl]-(4-phenyl-4,5,6,7-tetrahydro-benzothiazol-2-yl)-amine]
157 to 158 °C | Cc1cn(-c2ccc(Nc3ncc4c(n3)C(C)(c3ccccc3)CCC4)cc2F)cn1 (centres unmarked) [Example 56, [3-Fluoro-4-(4-methyl-imidazol-1-yl)-phenyl]-(8-methyl-8-phenyl-5,6,7,8-tetrahydro-quinazolin-2-yl)-amine]
214 to 216 °C | COc1cc(Nc2ncc3c(n2)C(N2CCOCC2)CCC3)ccc1-n1cnc(C)c1 (centres unmarked) [Example 81, [3-Methoxy-4-(4-methyl-imidazol-1-yl)-phenyl]-(8-morpholin-4-yl-5,6,7,8-tetrahydro-quinazolin-2-yl)-amine]
94 to 95 °C | COc1cc(Nc2ncc3c(n2)C(C(=O)N2CCCC2)CCC3)ccc1-n1cnc(C)c1 (centres unmarked) [Example 87, {2-[3-Methoxy-4-(4-methyl-imidazol-1-yl)-phenylamino]-5,6,7,8-tetrahydro-quinazolin-8-yl}-pyrrolidin-1-yl-methanone]
218 to 220 °C | COc1cc(Nc2ncc3c(n2)C(c2cc(Cl)ccc2Cl)CCCC3)ccc1-n1cnc(C)c1 (centres unmarked) [Example 62, [9-(2,5-Dichloro-phenyl)-6,7,8,9-tetrahydro-5H-cycloheptapyrimidin-2-yl]-[3-methoxy-4-(4-methyl-imidazol-1-yl)-phenyl]-amine]
180 to 182 °C | COC(=O)C1CC2(Cc3cnc(Nc4ccc(-n5cnc(C)c5)c(OC)c4)nc31)OCCO2 (centres unmarked) [Example 55, Methyl 6,6-ethylendioxy-2-[3-methoxy-4-(4-methyl-imidazol-1-yl)-phenylamino]-5,6,7,8-tetrahydro-quinazoline-8-carboxylate]
142 to 145 °C | CCOC(=O)C1CCCc2cnc(Nc3ccc(-n4cnc(C)c4)c(F)c3)nc21 (centres unmarked) [Example 59, Ethyl 2-[3-fluoro-4-(4-methyl-imidazol-1-yl)-phenylamino]-5,6,7,8-tetrahydro-quinazoline-8-carboxylate]
162 to 164 °C | CCOC(=O)C1CCCc2cnc(Nc3ccc(-n4cnc(C)c4)c(OC)c3)nc21 (centres unmarked) [Example 54, Ethyl 2-[3-methoxy-4-(4-methyl-imidazol-1-yl)-phenylamino]-5,6,7,8-tetrahydro-quinazoline-8-carboxylate]
200 to 202 °C | Cc1cn(-c2ccc(Nc3ncc4c(n3)C(c3cc(C(F)(F)F)cc(C(F)(F)F)c3)CCC4)cc2F)cn1 (centres unmarked) [Example 61, [8-(3,5-Bis-trifluoromethyl-phenyl)-5,6,7,8-tetrahydro-quinazolin-2-yl]-[3-fluoro-4-(4-methyl-imidazol-1-yl)-phenyl]-amine]
150 to 153 °C | CCOC(=O)C1CCc2cnc(Nc3ccc(-n4cnc(C)c4)c(OC)c3)nc21 (centres unmarked) [Example 63, Ethyl 2-[3-methoxy-4-(4-methyl-imidazol-1-yl)-phenylamino]-6,7-dihydro-5H-cyclopentapyrimidine-7-carboxylate]

tested on: γ-secretase; experiment: Cellular γ-secretase assay (Aβ42 secretion); type: cell-based; details: inhibition of Aβ42 secretion; human neuroglioma H4 cells overexpressing human APP; 22 hrs incubation; read-out: EC50 in vitro
Method: Cellular γ-Secretase Assay
Human neuroglioma H4 cells overexpressing human APP were plated at 30,000 cells/well/200 μl in 96-well plates in IMDM media containing 10% FCS, 0.2 mg/l Hygromycin B and incubated for 2 h at 37° C., 5% CO2 prior to adding test compounds.
Compounds for testing were dissolved in 100% Me2SO yielding in a 10 mM stock solution. Typically 12 μl of these solutions were further diluted in 1000 μl of IMDM media (w/o FCS,). Sub sequential 1:1 dilutions gave a ten point dose response curve. 100 μl of each dilution was added to the cells in 96-well plates. Appropriate controls using vehicle only and reference compound were applied to this assay. The final concentration of Me2SO was 0.4%.
After incubation for 22 hrs at 37° C., 5% CO2, 50 μl supernatant was transferred into round-bottom 96-well polypropylene plates for detection of Aβ42. 50 μl assay buffer (50 mM Tris/Cl, pH 7.4, 60 mM NaCl, 0.5% BSA, 1% TWEEN 20) was added to the wells followed by the addition of 100 μl of detection antibody (ruthenylated Aβ42-specific antibody BAP15 0.0625 μg/mL in assay buffer). 50 μl of a premix of capture antibody (biotinylated 6E10 antibody, 1 μg/mL) and Steptavidin-coated magnetic beads (Dynal M-280, 0.125 mg/mL) were preincubated for 1 hr at room temperature before adding the assay plates. Assay plates were incubated on a shaker for 3 hrs at room temperature and finally read in the Bioveris M8 Analyser according to the manufacturer's instructions (Bioveris).
EC50 values for inhibition of Aβ42 secretion were calculated by nonlinear regression fit analysis using XLfit 4.0 software (IDBS).

EC50 | Compound
160 nM | COc1cc(Nc2nc3c(s2)CCCC3c2cc(F)ccc2F)ccc1-n1cnc(C)c1 (centres unmarked) [Example 12, [4-(2,5-Difluoro-phenyl)-4,5,6,7-tetrahydro-benzothiazol-2-yl]-[3-methoxy-4-(4-methyl-imidazol-1-yl)-phenyl]-amine]
210 nM | Cc1cn(-c2ccc(Nc3nc4c(s3)CCCC4c3ccccc3)cc2O)cn1 (centres unmarked) [Example 66, 2-(4-Methyl-imidazol-1-yl)-5-(4-phenyl-4,5,6,7-tetrahydro-benzothiazol-2-ylamino)-phenol]
110 nM | COc1ccccc1C1CCCc2sc(Nc3ccc(-n4cnc(C)c4)c(OC)c3)nc21 (centres unmarked) [Example 7, [3-Methoxy-4-(4-methyl-imidazol-1-yl)-phenyl]-[4-(2-methoxy-phenyl)-4,5,6,7-tetrahydro-benzothiazol-2-yl]-amine]
40 nM | COc1cc(Nc2nc3c(s2)CCCC3c2ccccc2)ccc1-n1cnc(C)c1 (centres unmarked) [Example 6, [3-Methoxy-4-(4-methyl-imidazol-1-yl)-phenyl]-(4-phenyl-4,5,6,7-tetrahydro-benzothiazol-2-yl)-amine]
260 nM | COc1cc(Nc2nc3c(s2)CCCC3(CC#N)c2ccc(Cl)cc2)ccc1-n1cnc(C)c1 (centres unmarked) [Example 19, {4-(4-Chloro-phenyl)-2-[3-methoxy-4-(4-methyl-imidazol-1-yl)-phenylamino]-4,5,6,7-tetrahydro-benzothiazol-4-yl}-acetonitrile]
